Measurements from patent publication US12303517B1, “Oral testosterone therapy” (Lipocine, Inc., priority 2016, dated 2025).

Experiment: Single fixed dose dosing regimen examples for safety and efficacy (serum T Cmax / Cavg criteria), with food
Format: in vivo, human
[1] = Regimen 1, QD 500 mg T13, with food with at least 10 g of fat
[2] = Regimen 2, QD 700 mg T13, with food with at least 10 g of fat
[3] = Regimen 3, QD 750 mg T13, with food with at least 10 g of fat
[4] = Regimen 4, QD 800 mg T13, with food with at least 10 g of fat
[5] = Regimen 5, QD 900 mg T13, with food with at least 10 g of fat
[6] = Regimen 6, QD 1000 mg T13, with food with at least 10 g of fat
[7] = Regimen 7, QD 1100 mg T13, with food with at least 10 g of fat
[8] = Regimen 8, QD 1150 mg T13, with food with at least 10 g of fat
[9] = Regimen 9, QD 1250 mg T13, with food with at least 10 g of fat
[10] = Regimen 10, BID-equal dose (AM/PM) 250/250 mg T13, with food with at least 10 g of fat
[11] = Regimen 11, BID-equal dose (AM/PM) 350/350 mg T13, with food with at least 10 g of fat

## CCCCCCCCCCCCC(=O)O[C@H]1CC[C@H]2[C@@H]3CCC4=CC(=O)CC[C@]4(C)[C@H]3CC[C@]12C [T13, testosterone tridecanoate]
[1]
  Cavg > 300 ng/dL ≥75% patients: No
  Cavg > 300 ng/dL ≥80% patients: No
  Cmax > 1500 ng/dL <15% patients: Yes
  Cmax > 1500 ng/dL <20% patients: Yes
  Cmax > 1800 ng/dL <5% patients: Yes
  Cmax > 1800 ng/dL <10% patients: Yes
  Cmax > 2500 ng/dL <2% patients: Yes
  Cmax > 2500 ng/dL none of patients: Yes
[2]
  Cavg > 300 ng/dL ≥75% patients: No
  Cavg > 300 ng/dL ≥80% patients: No
  Cmax > 1500 ng/dL <15% patients: Yes
  Cmax > 1500 ng/dL <20% patients: Yes
  Cmax > 1800 ng/dL <5% patients: Yes
  Cmax > 1800 ng/dL <10% patients: Yes
  Cmax > 2500 ng/dL <2% patients: Yes
  Cmax > 2500 ng/dL none of patients: Yes
[3]
  Cavg > 300 ng/dL ≥75% patients: Yes
  Cavg > 300 ng/dL ≥80% patients: No
  Cmax > 1500 ng/dL <15% patients: Yes
  Cmax > 1500 ng/dL <20% patients: Yes
[4]
  Cavg > 300 ng/dL ≥75% patients: Yes
  Cavg > 300 ng/dL ≥80% patients: Yes
[5]
  Cavg > 300 ng/dL ≥75% patients: Yes
  Cavg > 300 ng/dL ≥80% patients: Yes
  Cmax > 1500 ng/dL <15% patients: Yes
  Cmax > 1500 ng/dL <20% patients: Yes
  Cmax > 1800 ng/dL <5% patients: Yes
  Cmax > 1800 ng/dL <10% patients: Yes
  Cmax > 2500 ng/dL <2% patients: Yes
  Cmax > 2500 ng/dL none of patients: Yes
[6]
  Cavg > 300 ng/dL ≥75% patients: Yes
  Cavg > 300 ng/dL ≥80% patients: Yes
  Cmax > 1500 ng/dL <15% patients: Yes
  Cmax > 1500 ng/dL <20% patients: Yes
  Cmax > 1800 ng/dL <5% patients: Yes
  Cmax > 1800 ng/dL <10% patients: Yes
  Cmax > 2500 ng/dL <2% patients: Yes
  Cmax > 2500 ng/dL none of patients: Yes
[7]
  Cavg > 300 ng/dL ≥75% patients: Yes
  Cavg > 300 ng/dL ≥80% patients: Yes
  Cmax > 1500 ng/dL <15% patients: Yes
  Cmax > 1500 ng/dL <20% patients: Yes
  Cmax > 1800 ng/dL <5% patients: Yes
  Cmax > 1800 ng/dL <10% patients: Yes
  Cmax > 2500 ng/dL <2% patients: Yes
  Cmax > 2500 ng/dL none of patients: Yes
[8]
  Cavg > 300 ng/dL ≥75% patients: Yes
  Cavg > 300 ng/dL ≥80% patients: Yes
  Cmax > 1500 ng/dL <15% patients: No
  Cmax > 1500 ng/dL <20% patients: Yes
  Cmax > 1800 ng/dL <5% patients: Yes
  Cmax > 1800 ng/dL <10% patients: Yes
  Cmax > 2500 ng/dL <2% patients: Yes
  Cmax > 2500 ng/dL none of patients: No
[9]
  Cavg > 300 ng/dL ≥75% patients: Yes
  Cavg > 300 ng/dL ≥80% patients: Yes
  Cmax > 1500 ng/dL <15% patients: No
  Cmax > 1500 ng/dL <20% patients: No
  Cmax > 1800 ng/dL <5% patients: No
  Cmax > 1800 ng/dL <10% patients: No
  Cmax > 2500 ng/dL <2% patients: No
  Cmax > 2500 ng/dL none of patients: No
[10]
  Cavg > 300 ng/dL ≥75% patients: No
  Cavg > 300 ng/dL ≥80% patients: No
  Cmax > 1500 ng/dL <15% patients: Yes
  Cmax > 1500 ng/dL <20% patients: Yes
  Cmax > 1800 ng/dL <5% patients: Yes
  Cmax > 1800 ng/dL <10% patients: Yes
  Cmax > 2500 ng/dL <2% patients: Yes
  Cmax > 2500 ng/dL none of patients: Yes
[11]
  Cavg > 300 ng/dL ≥75% patients: No
  Cavg > 300 ng/dL ≥80% patients: No
  Cmax > 1500 ng/dL <15% patients: Yes
  Cmax > 1500 ng/dL <20% patients: Yes
  Cmax > 1800 ng/dL <5% patients: Yes
  Cmax > 1800 ng/dL <10% patients: Yes
  Cmax > 2500 ng/dL <2% patients: Yes
  Cmax > 2500 ng/dL none of patients: Yes
